Reference: PubChem BioAssay (NCI)
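Five concentrations, 48 hours, 96-well plates. TGI denotes the concentration required for complete inhibition of growth.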

Columns and labels:
Experiment in all cases: inhibition of tumour cell growth, NCI panel, 48 h
HS 578T breast = test system: HS 578T breast
SF-268 CNS = test system: SF-268 CNS
SK-OV-3 ovarian = test system: SK-OV-3 ovarian
IGROV1 ovarian = test system: IGROV1 ovarian
NCI/ADR-RES ovarian = test system: NCI/ADR-RES ovarian
EKVX NSCLC = test system: EKVX NSCLC
SNB-19 CNS = test system: SNB-19 CNS
MDA-N = test system: MDA-N
UO-31 renal = test system: UO-31 renal
M14 melanoma = test system: M14 melanoma
MALME-3M melanoma = test system: MALME-3M melanoma

Row | Structure (SMILES) | TGI (HS 578T breast) | TGI (SF-268 CNS) | TGI (SK-OV-3 ovarian) | TGI (IGROV1 ovarian) | TGI (NCI/ADR-RES ovarian) | TGI (EKVX NSCLC) | TGI (SNB-19 CNS) | TGI (MDA-N) | TGI (UO-31 renal) | TGI (M14 melanoma) | TGI (MALME-3M melanoma)
1 | C=CC(C)(C)NC(C(=O)N1CCC[C@H]1c1nc(-c2nc(C(=O)OCC=C(C)C)c(C)o2)c(C)o1)C(C)C (some centres undefined) | > 100 µM | > 100 µM | > 100 µM | > 100 µM | > 100 µM | > 90.1 µM | > 100 µM | 56.2 µM | > 65.1 µM | > 100 µM | > 100 µM
2 | O=S(=O)(O)c1c(Cl)c(Cl)c(O)c2ncccc12 | 54.4 µM | 13.8 µM | 25.8 µM | 16 µM | 49.7 µM | 41.6 µM | 44.1 µM | 43.6 µM | 22.7 µM | 27.1 µM | 31.1 µM
3 | O=c1[nH]c(=O)n([C@H]2C[C@@H](CO)[C@@H](O)C2)cc1I |  | > 100 µM | > 100 µM | > 100 µM |  | > 100 µM | > 100 µM |  | > 100 µM | > 100 µM | > 100 µM
4 | COc1cc2ccnc(C#N)c2cc1OCc1ccccc1 |  | > 100 µM |  |  |  | > 100 µM | > 100 µM |  | > 100 µM | > 100 µM | > 100 µM
5 | O=C1CCC(=O)c2ccccc2N1 |  | > 100 µM | > 100 µM | > 100 µM |  | > 100 µM | > 100 µM |  | > 100 µM | > 100 µM | > 100 µM
6 | Cn1c2ncccc2n2c(=O)cc(O)cc12 |  | > 100 µM | > 100 µM | 31.5 µM | > 100 µM | > 100 µM | > 100 µM | > 100 µM | > 100 µM | > 100 µM | > 100 µM
7 | CN(C)CC1(Cc2ccccc2)CC/C(=C\c2ccccc2)C1=O (centres undefined) |  | > 100 µM |  | > 100 µM |  |  | 63.3 µM |  | > 100 µM | > 100 µM | > 100 µM
8 | COc1ccc2nc3ccc(OC)cc3c(S(=O)Cc3ccccc3)c2c1 (centres undefined) | 33.8 µM | 40.2 µM | 33.9 µM | 21.5 µM | 46.7 µM | 30.5 µM | 41.5 µM |  | 22.8 µM | 30.1 µM | 7.87 µM
9 | CC1(C=O)CC(CCc2ccccc2)NC1Cc1ccc(O)cc1 (centres undefined) | 41.9 µM | 33.1 µM | 33.4 µM | 30.8 µM | 37.6 µM | 29 µM | 28.1 µM | 32.1 µM | 28.4 µM | 29.7 µM | 
10 | COc1cc(-c2nc(N)c(C#N)c3c2CCS(=O)(=O)c2ccc(C)cc2-3)cc(OC)c1OC | > 100 µM | > 100 µM |  | > 100 µM | > 100 µM |  | 29.5 µM | > 100 µM | > 100 µM | > 100 µM | > 100 µM
11 | COc1ccc(/C=C2/SC(=Nc3ccccc3)N(NC(=O)Cc3ccccc3)C2=O)cc1 | > 100 µM | > 100 µM | > 100 µM | > 100 µM | > 100 µM | > 100 µM | > 100 µM | > 100 µM | > 100 µM | > 100 µM | 
12 | N#CCCC1(CCC#N)S(=O)(=O)OCCOS1(=O)=O | 78.4 µM | > 100 µM | > 100 µM |  | > 100 µM | > 100 µM | > 100 µM | > 100 µM | > 100 µM | > 100 µM | > 100 µM
